In ChEMBL document CHEMBL1201862, “PubChem BioAssay data set” (2004):
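Dose response: 5 concentrations. Exposure: 48 h. Format: 96-well plates. Endpoint: linear interpolation; highest concentration if not reached. GI50 is the concentration that inhibits growth by half.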 The source made the active and inactive calls. Cut-off read from the data, not from the text of the source: active = GI50 up to about 1.1 µM and inactive = higher.

Columns and labels:
Test in all cases: NCI-60 cell line screen, 48 h
[1] = tested on: 786-0
[2] = tested on: MDA-MB-231
[3] = tested on: BT-549
[4] = tested on: SW-620
[5] = tested on: HOP-92
[6] = tested on: MOLT-4
[7] = tested on: CCRF-CEM
[8] = tested on: HL-60
[9] = tested on: SNB-19
[10] = tested on: U-251
[11] = tested on: UACC-257
[12] = tested on: HCT-15
[13] = tested on: COLO 205
[14] = tested on: NCI/ADR-RES
[15] = tested on: ACHN
[16] = tested on: DU-145
[17] = tested on: RPMI-8226
[18] = tested on: OVCAR-5
[19] = tested on: MCF7
[20] = tested on: PC-3
[21] = tested on: HCC 2998
[22] = tested on: RXF 393
[23] = tested on: LOX IMVI
[24] = tested on: MDA-MB-435
[25] = tested on: UO-31
[26] = tested on: SK-MEL-5
[27] = tested on: CAKI-1
[28] = tested on: TK-10
[29] = tested on: K562
[30] = tested on: HT-29
[31] = tested on: OVCAR-3
[32] = tested on: Malme-3M
[33] = tested on: HCT-116
[34] = tested on: NCI-H23
[35] = tested on: IGROV-1
[36] = tested on: UACC-62
[37] = tested on: A498
[38] = tested on: EKVX
[39] = tested on: SF-268
[40] = tested on: Hs-578T
[41] = tested on: SK-MEL-2
[42] = tested on: A549
[43] = tested on: KM12
[44] = tested on: M14
[45] = tested on: HOP-62
[46] = tested on: MDA-N
[47] = tested on: SK-OV-3
[48] = tested on: SF-295
[49] = tested on: OVCAR-8
[50] = tested on: OVCAR-4
[51] = tested on: SR
[52] = tested on: NCI-H460
[53] = tested on: SN12C
[54] = tested on: NCI-H522
[55] = tested on: SNB-75
[56] = tested on: NCI-H226
[57] = tested on: T47D
[58] = tested on: SK-MEL-28
[59] = tested on: SF-539

Measured: GI50

CCCCC[C@@H]1OC(=O)[C@@]2(CC3c4ccccc4C2c2ccccc23)[C@H]1C(=O)OC
29.9 µM: [12]
inactive: [1] 67.3 µM | [2] > 100 µM | [3] > 100 µM | [4] 52 µM | [5] > 100 µM | [6] > 10 µM | [7] 17.2 µM | [8] 6.35 µM | [9] > 100 µM | [10] 45 µM | [11] 14.5 µM | [13] 14.2 µM | [14] 64.6 µM | [15] 45.5 µM | [16] > 100 µM | [17] 9.68 µM | [18] > 100 µM | [19] 21.8 µM | [20] 14.6 µM | [21] 23.6 µM | [22] 24.6 µM | [23] 71.4 µM | [24] 93.1 µM | [25] 85.3 µM | [26] 17.2 µM | [27] 42.6 µM | [28] 35.9 µM | [29] 15.8 µM | [30] 17.3 µM | [31] 92.5 µM | [32] 53.2 µM | [33] 12.4 µM | [34] 21.9 µM | [35] > 100 µM | [36] 9.29 µM | [37] 13.4 µM | [38] 39.7 µM | [39] > 100 µM | [40] > 100 µM | [41] 28.4 µM | [42] 24.4 µM | [43] 45.7 µM | [44] 55.2 µM | [45] > 100 µM | [46] 79.6 µM | [47] 84.7 µM | [48] 71 µM | [49] 79.1 µM | [50] 58.2 µM | [51] 10.1 µM | [52] 11.6 µM | [53] 74.3 µM

C/C=C/C(C/C=C(\C)CO[Si](C)(C)C(C)(C)C)O[Si](C)(C)C(C)(C)C (stereo not given)
inactive: [1] > 100 µM | [2] > 100 µM | [4] > 100 µM | [54] > 100 µM | [55] > 100 µM | [6] > 100 µM | [7] > 100 µM | [8] > 100 µM | [9] > 100 µM | [56] > 100 µM | [11] > 100 µM | [13] > 100 µM | [14] > 100 µM | [57] > 100 µM | [15] > 100 µM | [16] > 100 µM | [17] > 100 µM | [18] > 100 µM | [19] > 100 µM | [20] > 100 µM | [21] > 100 µM | [22] > 100 µM | [23] > 100 µM | [24] > 100 µM | [25] > 100 µM | [58] > 100 µM | [26] > 100 µM | [27] > 100 µM | [28] > 100 µM | [29] > 100 µM | [30] > 100 µM | [31] > 100 µM | [32] > 100 µM | [33] > 100 µM | [34] > 100 µM | [35] > 100 µM | [36] > 100 µM | [37] > 100 µM | [38] > 100 µM | [39] > 100 µM | [40] > 100 µM | [41] > 100 µM | [42] > 100 µM | [43] > 100 µM | [44] > 100 µM | [45] > 100 µM | [46] > 100 µM | [47] > 100 µM | [59] > 100 µM | [48] > 100 µM | [49] > 100 µM | [50] > 100 µM | [51] > 100 µM | [52] > 100 µM | [53] > 100 µM
> 100 µM: [12]

C=CCNC(=O)/C(Cc1cc(Br)c(OC)c(Br)c1O)=N\O
active: [24] 0.515 µM | [46] 0.334 µM
inactive: [1] 2.61 µM | [2] 6.73 µM | [3] 3.03 µM | [4] 3.15 µM | [5] 4.65 µM | [54] 1.78 µM | [6] 4.76 µM | [8] 1.29 µM | [9] 4.41 µM | [56] 2.59 µM | [10] 4.53 µM | [11] 6.15 µM | [13] 12.3 µM | [14] 2.44 µM | [15] 13.4 µM | [16] 5.3 µM | [17] 4.23 µM | [18] 5.43 µM | [19] 4.17 µM | [20] 6.46 µM | [21] 4.25 µM | [23] 5.68 µM | [25] 3.49 µM | [58] 3.53 µM | [26] 1.78 µM | [27] 5.18 µM | [28] 10.6 µM | [29] 2.37 µM | [30] 15 µM | [31] 2.38 µM | [32] 1.34 µM | [33] 3.01 µM | [34] 4.16 µM | [35] 4.57 µM | [36] 8.75 µM | [37] 10.1 µM | [38] 3.81 µM | [39] 3.58 µM | [40] 1.32 µM | [41] 7.73 µM | [42] 6.68 µM | [43] 2.77 µM | [44] 4.22 µM | [45] 2.79 µM | [59] 3.6 µM | [48] 3.64 µM | [49] 4.65 µM | [50] 7.23 µM | [51] 1.17 µM | [52] 3.84 µM
2.57 µM: [12]

O=[N+]([O-])/C(C(Cl)=C(Cl)Cl)=C1\NCCO1
> 100 µM: [12]
inactive: [1] > 100 µM | [2] > 100 µM | [54] > 100 µM | [6] 69.5 µM | [7] 22.9 µM | [8] 81.5 µM | [9] > 100 µM | [56] 39.3 µM | [10] > 100 µM | [11] > 100 µM | [13] > 100 µM | [14] > 100 µM | [57] 59.4 µM | [15] > 100 µM | [16] > 100 µM | [17] > 100 µM | [18] > 100 µM | [19] > 100 µM | [20] > 100 µM | [21] > 100 µM | [22] 90.4 µM | [23] > 100 µM | [24] > 100 µM | [25] > 100 µM | [58] > 100 µM | [26] > 100 µM | [27] > 100 µM | [28] > 100 µM | [29] > 100 µM | [30] > 100 µM | [31] 52.5 µM | [32] 45.8 µM | [33] 87.5 µM | [34] > 100 µM | [35] > 100 µM | [36] 35.7 µM | [37] > 100 µM | [38] > 100 µM | [39] > 100 µM | [40] 47.5 µM | [41] > 100 µM | [42] > 100 µM | [43] > 100 µM | [44] > 100 µM | [45] > 100 µM | [46] > 100 µM | [47] > 100 µM | [59] > 100 µM | [48] > 100 µM | [49] > 100 µM | [50] 35.1 µM | [51] > 100 µM | [52] > 100 µM | [53] > 100 µM

CCN(CC)CCC1CCCCN1CC(=O)N1c2cc(Cl)ccc2NC(=O)CC1C (stereo not given)
> 100 µM: [12]
inactive: [1] > 100 µM | [2] > 100 µM | [5] > 100 µM | [54] > 100 µM | [6] > 100 µM | [7] > 100 µM | [8] > 100 µM | [9] > 100 µM | [56] > 100 µM | [10] > 100 µM | [13] > 100 µM | [57] > 100 µM | [15] > 100 µM | [16] > 100 µM | [17] > 100 µM | [18] > 100 µM | [19] > 100 µM | [20] > 100 µM | [21] > 100 µM | [22] > 100 µM | [23] > 100 µM | [24] > 100 µM | [25] > 100 µM | [58] > 100 µM | [26] > 100 µM | [27] > 100 µM | [28] > 100 µM | [29] > 100 µM | [30] > 100 µM | [31] > 100 µM | [32] > 100 µM | [33] > 100 µM | [34] > 100 µM | [35] > 100 µM | [36] > 100 µM | [37] > 100 µM | [38] > 100 µM | [39] > 100 µM | [40] > 100 µM | [41] > 100 µM | [42] > 100 µM | [43] > 100 µM | [44] > 100 µM | [45] > 100 µM | [46] > 100 µM | [47] > 100 µM | [59] > 100 µM | [48] > 100 µM | [49] > 100 µM | [50] > 100 µM | [52] > 100 µM | [53] > 100 µM
